Type: in vivo, C57BL/6 mice
Source text: To investigate the toxicity induced by the HSV-tk/GCV system, each group of ten C57BL/6 mice received a tail vein injection of AdCMV TK (10^9 pfu), Adcox2LTK (10^9 pfu) or phosphate-buffered saline on day 0. […] The mice were sacrificed on day 6 and the blood samples were collected to analyze total bilirubin, alanine aminotransferase (ALT), aspartate aminotransferase (AST) an d lactate dehydrogenase (LDH) at a veterinary laboratory (ANTECH Diagnostics, Farmingdale, N.Y.). For histopathological analysis, the major organs were fixed with 10% buffered formaldehyde, paraffin-embedded and cut in to 4 μm section, followed by deparaffinization and staining with hematoxylin and eosin.

Nc1nc(O)c2ncn(COC(CO)CO)c2n1 [GCV, ganciclovir]
serum samples (total bilirubin, ALT, AST, LDH) (only GCV, without virus): did not show abnormality | liver histology (H and E) (without virus administration): appeared almost normal

From patent US20020107219A1, “Adenoviral vector containing cyclooxygenase-2 promoter and uses thereof” (priority 2000, published 2002)
